According to US20220411388A1, “SUBSTITUTED IMIDAZOLE CARBOXAMIDES AND THEIR USE IN THE TREATMENT OF MEDICAL DISORDERS” (Bial - R&D Investments, S.A., priority 2019, published 2022):
≈ marks a conversion by molar mass, not a printed value.

How the values were obtained:
[1] = Compound solubility in water; assay type: physicochemical
acid ceramidase (hACR) = target: T1, acid ceramidase (hACR) (Homo sapiens, UniProt Q13510); experiment: Acid ceramidase inhibition, biochemical fluorescent assay with cell lysates overexpressing acid ceramidase (substrate Rbm14-12); conditions: cell lysate, 1 hr preincubation at RT, pH 4.5, Rbm14-12 6.3 μM; read-out: IC50 hACR
T1 construct: expressed in transfected cells
T1 sequence (Q13510 22-395): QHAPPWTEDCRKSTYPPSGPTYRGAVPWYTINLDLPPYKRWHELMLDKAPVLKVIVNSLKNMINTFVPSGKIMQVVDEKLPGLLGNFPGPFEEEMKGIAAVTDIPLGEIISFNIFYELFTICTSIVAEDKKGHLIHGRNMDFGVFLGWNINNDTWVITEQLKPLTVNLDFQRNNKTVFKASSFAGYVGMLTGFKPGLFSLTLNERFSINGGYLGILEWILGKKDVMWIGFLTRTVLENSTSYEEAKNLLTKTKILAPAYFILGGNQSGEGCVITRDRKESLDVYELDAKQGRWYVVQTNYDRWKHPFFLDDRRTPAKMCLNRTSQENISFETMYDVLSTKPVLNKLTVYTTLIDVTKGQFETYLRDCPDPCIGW
Protocol: The ability of exemplary compounds to inhibit acid ceramidase was measured.
Cell lysates overexpressing acid ceramidase were used as the enzyme source for compound potency determination in a biochemical fluorescent assay. Briefly, compounds were preincubated with 10 μg protein of cell lysates in a dose-response manner for 1 hr at RT in the assay buffer containing 25 mM NaAC and 100 mM NaCl, pH 4.5. […] The samples were incubated with the stopping buffer at RT for 1 hr to allow the fluorescent product to be formed. […] Data were collected and used to determine the IC50 values of compounds by curve fitting to the four-parameter inhibition equation.

Row | Structure (SMILES) | solubility [1] [µg/mL] | IC50 (acid ceramidase (hACR)) [nM]
1 | O=C(NCCc1ccccc1)n1cnc(-c2ccccc2)c1 [Example 2, N-Phenethyl-4-phenyl-1H-imidazole-1-carboxamide] | 0.2 (≈ 0.686 µM) | < 200
2 | CC(C)(C)c1cn(C(=O)NCCc2ccccc2)cn1 [Example 3, 4-tert-Butyl-N-phenethyl-1H-imidazole-1-carboxamide] | 5.2 (≈ 19.2 µM) | < 200
3 | O=C(NCCc1ccccc1)n1cnc(-c2ccccn2)c1 [Example 4, N-Phenethyl-4-(pyridin-2-yl)-1H-imidazole-1-carboxamide] | 21.1 (≈ 72.2 µM) | 200 to 1000
4 | O=C(NCCc1ccccc1)n1cnc(-c2cccnc2)c1 [Example 5] | 16.2 (≈ 55.4 µM) | 200 to 1000
5 | O=C(NCCc1ccccc1)n1cnc(-c2ccncc2)c1 [Example 6, N-Phenethyl-4-(pyridin-4-yl)-1H-imidazole-1-carboxamide] | 23.9 (≈ 81.8 µM) | > 1000
6 | Cc1nc(-c2ccccc2)cn1C(=O)NCCc1ccccc1 [Example 7, 2-Methyl-N-phenethyl-4-phenyl-1H-imidazole-1-carboxamide] | 1.1 (≈ 3.6 µM) | < 200
7 | COc1nc(-c2ccccc2)cn1C(=O)NCCc1ccccc1 [Example 8, 2-Methoxy-N-phenethyl-4-phenyl-1H-imidazole-1-carboxamide] | 0.1 (≈ 0.311 µM) | 200 to 1000
8 | O=C(NCCCc1ccccc1)n1cnc(-c2ccccc2)c1 [Example 9] | 1.3 (≈ 4.26 µM) | < 200
9 | COc1nc(C(C)(C)C)cn1C(=O)NCCc1ccccc1 [Example 11, 4-tert-Butyl-2-methoxy-N-phenethyl-1H-imidazole-1-carboxamide] | 15.1 (≈ 50.1 µM) | 200 to 1000
10 | COc1nc(-c2ccccc2)cn1C(=O)NCCCc1ccccc1 [Example 12, 2-Methoxy-4-phenyl-N-(3-phenylpropyl)-1H-imidazole-1-carboxamide] | 1 (≈ 2.98 µM) | 200 to 1000
11 | CC(C)(CNC(=O)n1cnc(-c2cccnc2)c1)c1ccccc1 [Example 13, N-(2-Methyl-2-phenylpropyl)-4-(pyridin-3-yl)-1H-imidazole-1-carboxamide] | 1.9 (≈ 5.93 µM) | < 200
12 | O=C(NCCCc1ccccc1)n1cnc(-c2cccnc2)c1 [Example 14, N-(3-Phenylpropyl)-4-(pyridin-3-yl)-1H-imidazole-1-carboxamide] | 14.3 (≈ 46.7 µM) | < 200
13 | CC(CNC(=O)n1cnc(-c2cccnc2)c1)Cc1ccccc1 (stereo not shown) [Example 15, N-(2-Methyl-3-phenylpropyl)-4-(pyridin-3-yl)-1H-imidazole-1-carboxamide] | 16.1 (≈ 50.3 µM) | < 200
14 | CC(CCNC(=O)n1cnc(-c2cccnc2)c1)c1ccccc1 (stereo not shown) [Example 16, N-(3-Phenylbutyl)-4-(pyridin-3-yl)-1H-imidazole-1-carboxamide] | 3.8 (≈ 11.9 µM) | < 200
15 | O=C(NCCOc1ccccc1)n1cnc(-c2cccnc2)c1 [Example 17, N-(2-Phenoxyethyl)-4-(pyridin-3-yl)-1H-imidazole-1-carboxamide] | 2.6 (≈ 8.43 µM) | < 200
16 | O=C(NCCOc1ccccc1)n1cnc(-c2ccccc2)c1 [Example 18, N-(2-Phenoxyethyl)-4-phenyl-1H-imidazole-1-carboxamide] | 0.06 (≈ 0.195 µM) | < 200
17 | CC(C)(C)c1cn(C(=O)NCCOc2ccccc2)cn1 [Example 19, 4-tert-Butyl-N-(2-phenoxyethyl)-1H-imidazole-1-carboxamide] | 0.8 (≈ 2.78 µM) | < 200
18 | CC(C)(C)c1cn(C(=O)NCCc2cccnc2)cn1 [Example 20, 4-tert-Butyl-N-(2-(pyridin-3-yl)ethyl)-1H-imidazole-1-carboxamide] | 0.2 (≈ 0.734 µM) | 200 to 1000
19 | CC(C)CCNC(=O)n1cnc(-c2cccnc2)c1 [Example 21, N-iso-Pentyl-4-(pyridin-3-yl)-1H-imidazole-1-carboxamide] | 21.5 (≈ 83.2 µM) | 200 to 1000
20 | O=C(NCCC1CC1)n1cnc(-c2cccnc2)c1 [Example 22, N-(2-Cyclopropylethyl)-4-(pyridin-3-yl)-1H-imidazole-1-carboxamide] | 23 (≈ 89.7 µM) | 200 to 1000
21 | O=C(NCCC1(C(F)(F)F)CC1)n1cnc(-c2cccnc2)c1 [Example 23, 4-(Pyridin-3-yl)-N-(2-(1-(trifluoromethyl)cyclopropyl)ethyl)-1H-imidazole-1-carboxamide] | 23.7 (≈ 73.1 µM) | 200 to 1000

Row | Structure (SMILES) | solubility [1] [µg/mL] | IC50 (acid ceramidase (hACR)) [nM]
22 | CC(C)OCCNC(=O)n1cnc(-c2cccnc2)c1 [Example 24, N-(2-iso-Propoxyethyl)-4-(pyridin-3-yl)-1H-imidazole-1-carboxamide] | 12.6 (≈ 45.9 µM) | > 1000
23 | O=C(NCCC1(C(F)(F)F)CC1)n1cnc(-c2ccccc2)c1 [Example 25, 4-Phenyl-N-(2-(1-(trifluoromethyl)cyclopropyl)ethyl)-1H-imidazole-1-carboxamide] | 0.8 (≈ 2.47 µM) | < 200
24 | O=C(NCCC1CC1)n1cnc(-c2ccccc2)c1 [Example 26, N-(2-Cyclopropylethyl)-4-phenyl-1H-imidazole-1-carboxamide] | 1.9 (≈ 7.44 µM) | 200 to 1000
25 | CC(C)CCNC(=O)n1cnc(-c2ccccc2)c1 [Example 27, N-iso-Pentyl-4-phenyl-1H-imidazole-1-carboxamide] | 3.1 (≈ 12 µM) | < 200
26 | N#Cc1ccc(-c2cn(C(=O)NCCc3ccccc3)cn2)cn1 [Example 28, 4-(6-Cyanopyridin-3-yl)-N-phenethyl-1H-imidazole-1-carboxamide] | 5 (≈ 15.8 µM) | < 200
27 | Cc1ccc(-c2cn(C(=O)NCCc3ccccc3)cn2)cn1 [Example 29, 4-(6-Methylpyridin-3-yl)-N-phenethyl-1H-imidazole-1-carboxamide] | 3 (≈ 9.79 µM) | < 200
28 | O=C(NCCc1ccccc1)n1cnc(-c2ccc(F)nc2)c1 [Example 30, 4-(6-Fluoropyridin-3-yl)-N-phenethyl-1N-imidazole-1-carboxamide] | 3.4 (≈ 11 µM) | < 200
29 | COc1ccc(-c2cn(C(=O)NCCc3ccccc3)cn2)cn1 [Example 31, 4-(6-Methoxypyridin-3-yi)-N-phenethyl-1H-imidazole-1-carboxamide] | 25.1 (≈ 77.9 µM) | < 200
30 | O=C(NCCCC1CC1)n1cnc(-c2cccnc2)c1 [Example 32, N-(3-Cyclopropylpropyl)-4-(pyridin-3-yl)-1H-imidazole-1-carboxamide] | 27.6 (≈ 102 µM) | 200 to 1000
31 | CC(C)CCCNC(=O)n1cnc(-c2cccnc2)c1 [Example 33] | 18.9 (≈ 69.4 µM) | 200 to 1000
32 | CN(C)Cc1ccc(-c2cn(C(=O)NCCc3ccccc3)cn2)cc1 [Example 34, 4-(4-((Dimethylamino)methyl)phenyl)-N-phenethyl-1H-imidazole-1-carboxamide] | 25.6 (≈ 73.5 µM) | < 200
33 | CC(C)CNC(=O)n1cnc(-c2cccnc2)c1 [Example 35, N-iso-Butyl-4-(pyridin-3-yl)-1H-imidazole-1-carboxamide] | 19.1 (≈ 78.2 µM) | > 1000
34 | COc1ccc(-c2cn(C(=O)NCCC(C)C)cn2)cn1 [Example 36, N-iso-Pentyl-4-(6-methoxypyridin-3-yl)-1H-imidazole-1-carboxamide] | 2.9 (≈ 10.1 µM) | 200 to 1000
35 | Cc1ccc(-c2cn(C(=O)NCCC(C)C)cn2)cn1 [Example 37, N-iso-Pentyl-4-(6-methylpyridin-3-yl)-1H-imidazole-1-carboxamide] | 7.3 (≈ 26.8 µM) | > 1000
36 | CC(C)CCNC(=O)n1cnc(-c2ccccc2C2CCN(C)CC2)c1 [Example 38, N-iso-Pentyl-4-(2-(1-methylpiperidin-4-yl)phenyl)-1H-imidazole-1-carboxamide] | 35.3 (≈ 99.6 µM) | 200 to 1000
37 | CC(C)CCCCNC(=O)n1cnc(-c2cccnc2)c1 [Example 39, N-(5-Methylhexyl)-4-(pyridin-3-yl)-1H-imidazole-1-carboxamide] | 2.7 (≈ 9.43 µM) | < 200
38 | CC(C)CCNC(=O)n1cnc(-c2ccncc2)c1 [Example 41, N-iso-Pentyl-4-(pyridin-4-yl)-1H-imidazole-1-carboxamide] | 22.1 (≈ 85.6 µM) | > 1000
39 | O=C(NCc1ccccc1)n1cnc(-c2cccnc2)c1 [Example 42] | 13.6 (≈ 48.9 µM) | 200 to 1000
40 | CC(C)c1ccc(-c2cn(C(=O)NCCc3ccccc3)cn2)cn1 [Example 43, 4-(6-iso-Propylpyridin-3-yl)-N-phenethyl-1H-imidazole-1-carboxamide] | 0.8 (≈ 2.39 µM) | < 200
41 | CN1CCN(c2ncccc2-c2cn(C(=O)NCCCC3(C(F)(F)F)CC3)cn2)CC1 [Example 176, 4-(2-(4-Methylpiperazin-1-yl)pyridin-3-yl)-N-(3-(1-(trifluoromethyl)cyclopropyl)propyl)-1H-imidazole-1-carboxamide] | 29 (≈ 66.4 µM) | –
42 | COc1nc(Cl)cn1C(=O)NCC#CC(C)C [Example 186, 4-Chloro-2-methoxy-N-(4-methylpent-2-yn-1-yl)-1H-imidazole-1-carboxamide] | – | 200 to 1000
